Results published in ChEMBL document CHEMBL5506074, “Discovery and Optimization of Tetrahydroisoquinoline Derivatives To Enhance Lysosome Biogenesis as Preclinical Candidates for the Treatment of Alzheimer's Disease” (J Med Chem, 2024).
The source made the active and inactive calls. No cut-off for these calls is given here.

Assays:
HeLa [1] = assay: Induction of cell cycle arrest in human HeLa cells assessed as effect on LAMP1 level at 10 uM incubated for 12 hrs by qRT-PCR analysis; assay type: functional, cell-based
HeLa [2] = assay: Upregulation of LC3B mRNA expression in human HeLa cells at 10 uM incubated for 24 hrs by qRT-PCR analysis; assay type: functional, cell-based
HeLa [3] = assay: Upregulation of ATG2A mRNA expression in human HeLa cells at 10 uM incubated for 24 hrs by qRT-PCR analysis; assay type: functional, cell-based
HeLa [4] = assay: Upregulation of p62 mRNA expression in TFEB knockout human HeLa cells at 10 uM incubated for 24 hrs by qRT-PCR analysis; assay type: functional, cell-based
Mus musculus [5] = assay: Anti-alzheimer activity against APP/PS1 mouse model assessed as reduction in amyloid beta plaque in cortex at 10 mg/kg, ip administered for 30 days; assay type: functional; set-up: scale not given: the % may be the effect or the level left; details: time 30 day
HeLa [6] = assay: Upregulation of LAMP1 mRNA expression in TFEB knockout human HeLa cells at 10 uM incubated for 24 hrs by qRT-PCR analysis; assay type: functional, cell-based
[7] = Cmax in ICR mouse at 20 mg/kg, po measured upto 24 hrs by LC-MS/MS analysis; assay type: ADME, organism-based; details: in vivo
Mus musculus [8] = assay: Anti-alzheimer activity against APP/PS1 mouse model assessed as increase in time spent in the target quadrant at 10 mg/kg, ip administered for 30 days by Morris water maze test; assay type: functional, organism-based; details: time 30.0 day
Mus musculus [9] = assay: Anti-alzheimer activity against APP/PS1 mouse model assessed as reduction in amyloid beta plaque in hippocampus at 10 mg/kg, ip administered for 30 days; assay type: functional; set-up: scale not given: the % may be the effect or the level left; details: time 30 day
Mus musculus [10] = assay: Anti-alzheimer activity against APP/PS1 mouse model assessed as reduction in amyloid beta 42 plaque in cortex at 10 mg/kg, ip administered for 30 days; assay type: functional; set-up: scale not given: the % may be the effect or the level left; details: time 30 day
Mus musculus [11] = assay: Anti-alzheimer activity against APP/PS1 mouse model assessed as upregulation of LAMP1 mRNA expression in brain at 10 mg/kg, ip administered for 30 days; assay type: functional, organism-based; details: time 30.0 day
HeLa [12] = assay: Upregulation of Atg16L1 mRNA expression in human HeLa cells at 10 uM incubated for 24 hrs by qRT-PCR analysis; assay type: functional, cell-based
HeLa [13] = assay: Upregulation of ATG2A mRNA expression in TFEB knockout human HeLa cells at 10 uM incubated for 24 hrs by qRT-PCR analysis; assay type: functional, cell-based
HeLa [14] = assay: Upregulation of OPTN mRNA expression in TFEB knockout human HeLa cells at 10 uM incubated for 24 hrs by qRT-PCR analysis; assay type: functional, cell-based
[15] = Ratio of drug concentration in ICR mouse brain to plasma at 5 mg/kg, iv measured upto 24 hrs by LC-MS/MS analysis; assay type: ADME, organism-based; details: brain and plasma, read-out: BPR
HeLa [16] = assay: Induction of cell cycle arrest in human HeLa cells assessed as effect on CDK7 level at 10 uM incubated for 12 hrs by qRT-PCR analysis; assay type: functional, cell-based
HeLa [17] = assay: Upregulation of LAMP1 mRNA expression in human HeLa cells at 10 uM incubated for 24 hrs by qRT-PCR analysis; assay type: functional, cell-based
[18] = Acute toxicity in C57BL/6J mouse assessed as kidney damage at 50 mg/kg, ip measured upto 14 days H and E staining based analysis; assay type: organism-based; details: in vivo, 336 h, time < 14 day
HeLa [19] = assay: Induction of cell cycle arrest in human HeLa cells assessed as effect on p21 level at 10 uM incubated for 12 hrs by qRT-PCR analysis; assay type: functional, cell-based
Mus musculus [20] = assay: Anti-alzheimer activity against APP/PS1 mouse model assessed as reduction in time to locate hidden platform at 10 mg/kg, ip administered for 30 days by Morris water maze test; assay type: functional, organism-based; details: time 30.0 day
[21] = test system: Primary neocortical neuron; assay: Cytotoxicity against mouse Primary neocortical neuron cells assessed as effect on cell viability at 10 uM incubated for 24 hrs; assay type: functional, cell-based
Mus musculus [22] = assay: Anti-alzheimer activity against APP/PS1 mouse model assessed as reduction in amyloid beta 42 plaque in hippocampus at 10 mg/kg, ip administered for 30 days; assay type: functional; set-up: scale not given: the % may be the effect or the level left; details: time 30 day
[23] = AUC (0 to t) in ICR mouse at 10 mg/kg, ip measured upto 24 hrs by LC-MS/MS analysis; assay type: ADME, organism-based; details: in vivo
HeLa [24] = assay: Upregulation of GLA mRNA expression in TFEB knockout human HeLa cells at 10 uM incubated for 24 hrs by qRT-PCR analysis; assay type: functional, cell-based
HeLa [25] = assay: Upregulation of UVRAG mRNA expression in TFEB knockout human HeLa cells at 10 uM incubated for 24 hrs by qRT-PCR analysis; assay type: functional, cell-based
HeLa [26] = assay: Upregulation of LC3B mRNA expression in TFEB knockout human HeLa cells at 10 uM incubated for 24 hrs by qRT-PCR analysis; assay type: functional, cell-based
[27] = Half life in ICR mouse at 10 mg/kg, ip measured upto 24 hrs by LC-MS/MS analysis; assay type: ADME, organism-based; details: in vivo
[28] = Acute toxicity in C57BL/6J mouse assessed as heart damage at 50 mg/kg, ip measured upto 14 days H and E staining based analysis; assay type: organism-based; details: in vivo, 336 h, time < 14 day
Mus musculus [29] = assay: Anti-alzheimer activity against APP/PS1 mouse model assessed as upregulation of CTSB mRNA expression in brain at 10 mg/kg, ip administered for 30 days; assay type: functional, organism-based; details: time 30.0 day
[30] = target: Cyclin-dependent kinase 9 (Homo sapiens) (UniProt P50750); assay: Inhibition of CDK9 in human SH-SY5Y cells assessed as decrease in Rpb1 phosphorylation at 10 uM incubated for 6 hrs by immunoblotting analysis; assay type: cell-based
Chain of Cyclin-dependent kinase 9 (Homo sapiens) (P50750 whole entry): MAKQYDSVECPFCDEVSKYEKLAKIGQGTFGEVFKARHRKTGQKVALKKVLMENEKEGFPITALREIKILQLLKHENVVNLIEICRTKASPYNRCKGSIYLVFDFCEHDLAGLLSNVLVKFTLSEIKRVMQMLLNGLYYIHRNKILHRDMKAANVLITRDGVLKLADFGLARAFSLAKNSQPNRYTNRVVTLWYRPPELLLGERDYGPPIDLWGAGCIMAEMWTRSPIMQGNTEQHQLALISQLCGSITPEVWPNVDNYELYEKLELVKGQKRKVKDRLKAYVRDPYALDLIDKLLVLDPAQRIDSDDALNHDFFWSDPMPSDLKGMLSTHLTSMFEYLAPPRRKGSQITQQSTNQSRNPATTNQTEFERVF

[31] = Induction of TFEB nuclear translocation in human HeLa cells expressing EGFP at 10 uM measured at 3 hrs by fluorescence microscopic analysis; assay type: functional
[32] = Bioavailability in ICR mouse at 5 mg/kg, ip measured upto 24 hrs by LC-MS/MS analysis; assay type: ADME, organism-based; details: in vivo
[33] = Induction of TFEB nuclear translocation in human HeLa cells expressing EGFP at 30 uM measured at 3 hrs by fluorescence microscopic analysis; assay type: functional
[34] = AUC (0 to t) in ICR mouse at 5 mg/kg, iv measured upto 24 hrs by LC-MS/MS analysis; assay type: ADME, organism-based; details: in vivo
HeLa [35] = assay: Upregulation of CTSF mRNA expression in TFEB knockout human HeLa cells at 10 uM incubated for 24 hrs by qRT-PCR analysis; assay type: functional, cell-based
Mus musculus [36] = assay: Anti-alzheimer activity against APP/PS1 mouse model assessed as upregulation of ATG16L1 mRNA expression in brain at 10 mg/kg, ip administered for 30 days; assay type: functional, organism-based; details: time 30.0 day
[37] = Ratio of drug concentration in ICR mouse brain to plasma at 10 mg/kg, ip measured upto 24 hrs by LC-MS/MS analysis; assay type: ADME, organism-based; details: brain and plasma, read-out: BPR
HeLa [38] = assay: Upregulation of Atg16L1 mRNA expression in TFEB knockout human HeLa cells at 10 uM incubated for 24 hrs by qRT-PCR analysis; assay type: functional, cell-based
HeLa [39] = assay: Upregulation of […] mRNA expression in TFEB knockout human HeLa cells at 10 uM incubated for 24 hrs by qRT-PCR analysis; assay type: functional, cell-based
HeLa [40] = assay: Upregulation of UVRAG mRNA expression in human HeLa cells at 10 uM incubated for 24 hrs by qRT-PCR analysis; assay type: functional, cell-based

## c1ccc2c(CCC3NCCc4cc5c(cc43)OCO5)c[nH]c2c1 (stereo not given)
HeLa [1]
  Activity: inactive
HeLa [2]
  Activity: Active
HeLa [3]
  Activity: Active
HeLa [4]
  Activity: Active
Mus musculus [5]
  Activity: 26.5%
HeLa [6]
  Activity: Active
[7]
  Cmax: 4030 ng/mL
Mus musculus [8]
  Activity: Active
Mus musculus [9]
  Activity: 67.5%
Mus musculus [10]
  Activity: 47%
Mus musculus [11]
  Activity: Active
HeLa [12]
  Activity: Active
HeLa [13]
  Activity: Active
HeLa [14]
  Activity: Active
[15]
  Kp at 24 h: 2.8
HeLa [16]
  Activity: inactive
HeLa [17]
  Activity: Active
[18]
  Activity: Non-Toxic
HeLa [19]
  Activity: inactive
Mus musculus [20]
  Activity: Active
[21]
  Activity: Active
Mus musculus [22]
  Activity: 43.6%
[23]
  AUC(0-t) at 24 h: 7640 ng·h/mL
HeLa [24]
  Activity: Active
HeLa [25]
  Activity: Active
HeLa [26]
  Activity: Active
[27]
  half-life: 2.05 h
[28]
  Activity: Non-Toxic
Mus musculus [29]
  Activity: Active
[30]
  inhibition: Active
[31]
  Activity: 44%
[32]
  bioavailability: 115%
[33]
  Activity: 97%
[34]; ICR
  AUC(0-t) at 24 h: 3310 ng·h/mL
HeLa [35]
  Activity: Active
Mus musculus [36]
  Activity: Active
[37]
  Kp at 24 h: 1.1
HeLa [38]
  Activity: Active
HeLa [39]
  Activity: Active
HeLa [40]
  Activity: Active

## Fc1ccc2[nH]cc(CCC3c4cc5c(cc4CCN3CC3CCOCC3)OCO5)c2c1 (stereo not given)
HeLa [1]
  Activity: inactive
HeLa [2]
  Activity: Active
HeLa [3]
  Activity: Active
HeLa [4]
  Activity: Active
Mus musculus [5]
  Activity: 29.5%
HeLa [6]
  Activity: Active
[7]
  Cmax: 9.49 ng/mL
Mus musculus [8]
  Activity: Active
Mus musculus [9]
  Activity: 69.8%
Mus musculus [10]
  Activity: 36.3%
Mus musculus [11]
  Activity: Active
HeLa [12]
  Activity: Active
HeLa [13]
  Activity: Active
HeLa [14]
  Activity: Active
[15]
  Kp at 24 h: 6.9
HeLa [16]
  Activity: inactive
HeLa [17]
  Activity: Active
[18]
  Activity: Non-Toxic
HeLa [19]
  Activity: inactive
Mus musculus [20]
  Activity: Active
[21]
  Activity: Active
Mus musculus [22]
  Activity: 25.4%
[23]
  AUC(0-t) at 24 h: 210 ng·h/mL
HeLa [24]
  Activity: Active
HeLa [25]
  Activity: Active
HeLa [26]
  Activity: Active
[27]
  half-life: 1.17 h
[28]
  Activity: Non-Toxic
Mus musculus [29]
  Activity: Active
[30]
  inhibition: Active
[31]
  Activity: 72%
[32]
  bioavailability: 25.7%
[33]
  Activity: 94%
[34]; iv, 5 mg/kg, 24 h
  AUCt: 409 ng·h/mL
HeLa [35]
  Activity: Active
Mus musculus [36]
  Activity: Active
[37]
  Kp at 24 h: 5.2
HeLa [38]
  Activity: Active
HeLa [39]
  Activity: Active
HeLa [40]
  Activity: Active
